Data on twelve compounds can be found in ChEMBL document CHEMBL4342436, “Artemisia: a promising plant for the treatment of cancer” (Bioorg Med Chem, 2020).

Each structure is given as a SMILES string. pIC50: −log10 of the molar value. ≈ marks a conversion by molar mass, not a printed value.

The test system of series [1] is HCT-8. As to the kind of experiment: Cytotoxicity against human HCT8 cells. Format: functional, cell-based.
Series [2] has as its system BGC-823. As to the kind of experiment: Cytotoxicity against human BGC823 cells. Format: functional, cell-based.
A short description of series [3]: Cytotoxicity against human 95-D cells assessed as reduction in cell viability after 24 hrs by MTT assay. It is filed as functional, cell-based. In general terms: Formazan colour is commonly taken as a measure of viable cells.
Series [4] can be described thus: Cytotoxicity against human QGY cells assessed as reduction in cell viability after 24 hrs by MTT assay. Format: functional, cell-based.
Series [5] deals with HeLa. In words: Cytotoxicity against human HeLa cells assessed as reduction in cell viability after 24 hrs by MTT assay. It is filed as functional, cell-based.
A short description of series [6]: Cytotoxicity against human HO8910 cells assessed as reduction in cell viability after 24 hrs by MTT assay. It is filed as functional, cell-based. The note with it: HO-8910, 24 h.
For series [7], the system named is HeLa. In words: Cytotoxicity against human HeLa cells. Format: functional, cell-based.
The test system of series [8] is KB. In words: (§1) Cytotoxicity against human KB cells. Format: functional. The note with it: read-out: ED50 (the source's name).
In series [9] the test system is P388. In words: Cytotoxicity against mouse P388 cells. It is filed as functional. To be noted: read-out: ED50 (the source's name).
Series [10] has as its system HT-29. As to the kind of experiment: Cytotoxicity against human HT-29 cells. It is filed as functional. The note with it: read-out: ED50 (the source's name).
Series [11] has as its system MCF7. As to the kind of experiment: (§2) Cytotoxicity against human MCF7 cells. To be noted: read-out: ED50 (the source's name). It is filed as functional.
The nature of series [12]: Cytotoxicity against rat pancreatic tumour cells assessed as reduction in cell viability after 24 hrs by MTT assay. It is filed as functional, cell-based.
Series [13] deals with BE(2)-C. In words: Induction of apoptosis in human BE(2)-C cells assessed as apoptotic cells at 300 uM after 72 hrs by Annexin V-FITC/propidium iodide staining based flow cytometric analysis relative to control. Format: functional. A general note: Flow cytometry measures light scatter and fluorescence of single cells or particles in a stream.
Series [14] in a line: Induction of apoptosis in human SH-EP1 cells assessed as apoptotic cells at 300 uM after 72 hrs by Annexin V-FITC/propidium iodide staining based flow cytometric analysis relative to control. Format: functional.
Series [15] deals with Lymphocyte. As to the kind of experiment: Induction of apoptosis in human Lymphocyte cells assessed as apoptotic cells at 2 ug/ml after 24 hrs by Annexin V-FITC/propidium iodide staining based fluorescence microscopic method relative to control. Format: cell-based.
The nature of series [16]: Growth inhibition of human A375M cells at 150 uM after 72 hrs by MTT assay relative to control. Format: functional. The note with it: read-out: GI.
Series [17] concerns SK-N-AS. In words: Induction of apoptosis in human SK-N-AS cells assessed as apoptotic cells at 300 uM after 72 hrs by Annexin V-FITC/propidium iodide staining based flow cytometric analysis relative to control. Format: functional.
Series [18] relates to SK-N-DZ. In words: Induction of apoptosis in human SK-N-DZ cells assessed as apoptotic cells at 300 uM after 72 hrs by Annexin V-FITC/propidium iodide staining based flow cytometric analysis relative to control. It is filed as functional.
Series [19] is described as follows: Growth inhibition of human A375P cells at 150 uM after 72 hrs by MTT assay relative to control. Format: functional. The note with it: read-out: GI.
The test system of series [20] is MDA-MB-435. In words: Cytotoxicity against human MDA-MB-435 cells after 72 hrs by MTT assay. It is filed as functional, cell-based. To be noted: MDA-MB-435, 72 h.
Series [21] has as its system COLO 205. As to the kind of experiment: Cytotoxicity against human COLO205 cells after 72 hrs by MTT assay. Format: functional, cell-based. To be noted: COLO 205, 72 h.
Series [22] has as its system LNCaP. In words: Cytotoxicity against human LNCAP cells. It is filed as functional, cell-based.
Series [23] relates to KB. The series is described as §1. Format: functional, cell-based.
Series [24] concerns SK-MEL-2. As to the kind of experiment: Cytotoxicity against human SK-MEL-2 cells. Format: functional, cell-based.
The test system of series [25] is HepG2. As to the kind of experiment: Cytotoxicity against human HepG2 cells. Format: functional, cell-based.
Series [26] deals with MCF7. The description is as §2. Format: functional, cell-based.
Series [27] deals with L1210. In words: Cytotoxicity against mouse L1210 cells assessed as reduction in cell viability after 48 hrs by MTT assay. Format: functional, cell-based. To be noted: L1210, 48 h.
In series [28] the test system is A549. As to the kind of experiment: Cytotoxicity against human A549 cells assessed as reduction in cell viability after 48 hrs by MTT assay. The note with it: A549, 48 h. Format: functional, cell-based.
In series [29] the test system is P388. In words: Cytotoxicity against mouse P388 cells assessed as reduction in cell viability after 48 hrs by MTT assay. Format: functional, cell-based. To be noted: P388, 48 h.
Series [30] has as its system HT-29. As to the kind of experiment: Cytotoxicity against human HT-29 cells assessed as reduction in cell viability after 48 hrs by MTT assay. Format: functional, cell-based. To be noted: HT-29, 48 h.
Series [31] has as its system SW-620. In words: Antitumour activity against human SW620 cells xenografted in mouse assessed as inhibition of tumour growth at 60 mg/kg relative to control. It is filed as functional. To be noted: read-out: TGI. In general terms: Xenograft models place foreign cells or tissue in a host animal.
Series [32] relates to MCF7. As to the kind of experiment: Antiproliferative activity against human MCF7 cells assessed as reduction in cell viability after 48 hrs by MTT assay. Format: functional, cell-based. To be noted: MCF7, 48 h.
For series [33], the system named is BHY. As to the kind of experiment: Antiproliferative activity against human BHY cells assessed as reduction in cell viability after 48 hrs by MTT assay. It is filed as functional, cell-based.
In series [34] the test system is MIA PaCa-2. As to the kind of experiment: Antiproliferative activity against human MIAPaCa2 cells assessed as reduction in cell viability after 48 hrs by MTT assay. It is filed as functional, cell-based. To be noted: MIA PaCa-2, 48 h.
The subject of series [35] is A549. In words: Antiproliferative activity against human A549 cells assessed as reduction in cell viability after 48 hrs by MTT assay. It is filed as functional, cell-based. To be noted: A549, 48 h.
The subject of series [36] is COLO 205. As to the kind of experiment: Antiproliferative activity against human COLO205 cells assessed as reduction in cell viability after 48 hrs by MTT assay. Format: functional, cell-based. To be noted: COLO 205, 48 h.

What is called pIC50 is the IC50 on a negative log10 scale, so that one unit is a factor of ten. As to `C=C(C(=O)OC)[C@@H]1CC[C@@]2(C)C(=O)C=C[C@@](C)(O)[C@@H]2[C@H]1O`, the results for the pIC50 in series [1] and in [2] were 5.04 and 5.20, respectively.

For `C=CC(=C)CC/C=C(/CCC=C(C)C)COC(C)=O`, the pIC50 in [3], in series [4], in series [5] and in series [6] was 4.13 to 4.75 in each case.

Take `C=C1C(=O)O[C@@H]2C[C@@]3(C)CCCC(=C)[C@@H]3C[C@H]12` [ISOALANTOLACTONE]: the pIC50 in series [5] is 5.09.

In the case of `O=c1cc(-c2ccc(O)cc2)oc2cc(O)cc(O)c12` [APIGENIN], the pIC50 in [7] was 5.22.

On to `COc1ccc(-c2oc3cc(OC)c(OC)c(O)c3c(=O)c2O)cc1OC`, for which the EC50 in series [8], in [9], in [10] and in [11] was 1.25 to 9.62 µg/mL (≈ 3.34 to 25.7 µM) in each case.

Consider `C[C@@H]1CC[C@H]2[C@@H](C)C(=O)O[C@@H]3O[C@@]4(C)CC[C@@H]1[C@]32OO4` [ARTEMISININ], for which, in series [12], the pIC50 was 4.35. Also, the EC50 in series [8], in [9], in [10] and in series [11] was 1.25 to 9.62 µg/mL (≈ 4.43 to 34.1 µM) each time. The Activity in [13] is reported as 42%; in series [14], 23%; in series [15], 70%; in [17] it was 22%; in series [18] it was 40%. For the same compound, the results for the inhibition of growth at 150 µM in [16] and in series [19] were 60% and 68%, respectively.

Regarding `C=C1C(=O)O[C@H]2[C@H]1[C@@H](OC(=O)C(C)CC)CC(=C)[C@]1(O)CC=C(C)[C@H]21` (stereo partly specified), the pIC50 in series [20] and in series [21] was 5.00 to 5.15 each time.

Take `C=C1C(=O)O[C@H]2[C@H]1CC[C@@](C)(O)C1=C[C@@H](O)[C@@](C)(O)[C@@H]12`: the pIC50 in series [22], in [23], in series [24], in [25] and in series [26] was under 4.00 throughout.

With `C[C@H]1[C@@H](O[C@H](C#N)c2ccc(Br)cc2)O[C@@H]2O[C@@]3(C)CC[C@H]4[C@H](C)CC[C@@H]1[C@@]24OO3`, the pIC50 in series [27], in series [28], in series [29] and in [30] was 6.31 to 8.00 each time.

`COc1ccc(-c2cc(=O)c3c(O)c(O)c(OC)cc3o2)cc1OC`: the inhibition in vivo at 60 mg/kg in series [31] turned out to be 44.6%.

Take `C=C(C)[C@@H]1CC[C@]2(C)CC[C@]3(C)[C@H](CC[C@@H]4[C@@]5(C)CC[C@H](O)C(C)(C)[C@@H]5CC[C@]43C)[C@@H]12` [LUPEOL]: the pIC50 in [32], in [33], in [34], in series [35] and in series [36] was 4.06 to 4.60 in each case.

In the case of `C=C1C(=O)O[C@H]2[C@H]1CC[C@@](C)(O)C1=C[C@H](O)[C@@](C)(O)[C@@H]12`, the pIC50 in series [22], in [23], in [24], in series [25] and in series [26] was under 4.00 throughout.
